Laboratory results taken from US20060088596A1, “Solubilizing a drug for use in a coating” (ATRIUM MEDICAL CORPORATION, priority 2004, published 2006).
Each block holds one molecule with its values, some of them ahead of it.

Legend:
Porcine Coronary Model = conditions: stent coated with agent solubilized in eicosapentaenoic acid oil vs eicosapentaenoic acid oil coated stents; cited from earlier work
[1] = Maximum solubility / drug loading of therapeutic agent in vitamin E / bio-absorbable carrier base coating (crystal inspection after solvent removal); assay type: physicochemical; conditions: for maximum solubility: NMP
Text: The amount of solvent that can be included in compositions of the present invention is not particularly limited. In accordance with one embodiment of the present invention, the amount of the therapeutic agent to be dissolved can be an amount up to the maximum amount that can be dissolved in the solvent, vitamin E compound and the bio-absorbable carrier component. The maximum amount of the therapeutic agent that can be dissolved is readily determined by simple mixing, as the presence of any non-dissolved therapeutic agent is apparent after solvent removal on visual inspection. In various embodiments, the amount of the therapeutic agent will be less than the maximum that can be dissolved. Upon administration to a subject of the therapeutic agent dissolved in the bio-absorbable carrier and the solvent, the amount of the given solvent can be limited to a pharmaceutically acceptable amount, which can be readily determined by one of skill in the art. In various aspects, it can be appropriate to include amounts of solvents in excess of pharmaceutically acceptable amounts, with excess solvent removed prior to providing the administration of the composition using conventional techniques such as evaporation.
Referring again to FIG. 1, the ratio of a vitamin E compound and the bio-absorbable carrier component is then determined (step 130). […] The bio-absorbable carrier component can include fish oil, fish oil mono, di and triglycerides, free fatty acids, fatty acid esters, partially oxidized oil, or hydrolyzed oil and any derivatives. After the formulations are made the solvent is removed from the sample under vacuum and the drug formulation is inspected under a microscope for crystal formation. The level of soluble drug can be influenced by such factors as vitamin E level, fish oil level, fatty acid ester content, free fatty acid content, mono, di or triglyceride content, presence of oxidation, or by hydrolysis byproducts of the oil. The amount of soluble drug can also be effected by the solvent and/or solvent loading that is used to load the drug into the formulation.
Referring again to FIG. 1, the bio-absorbable carrier component and the vitamin E compound or a combination thereof are provided (step 130). In accordance with one aspect of the present invention, the bio-absorbable carrier component and the vitamin E compound can be mixed together, for example, by vortexing, sonicating, stirring, rolling, or shaking, to form a second mixture (step 140). Accordingly, the second mixture can be mixed first, the first mixture can be mixed first, or the first mixture and the second mixture can be mixed substantially simultaneously. The first mixture and the second mixture can then be mixed (step 150) such that the therapeutic agent is dissolved, or, if the therapeutic agent was previously dissolved in the solvent, the therapeutic agent remains dissolved. After mixing the first mixture and the second mixture, the solvent is removed by techniques well known in the art, for example, by vacuum, washing, heating, evaporation and the like (step 160). Upon removal of the solvent, the resulting solution can be inspected for presence of crystal formation by techniques well known in the art (step 170). Suitable techniques for inspection for the presense of crystal formation include, for example, visual inspection, microscopic inspections, as well as chemical analysis techniques such as scanning electron microscopy (SEM), environmental scanning electron microscopy (ESEM), differential scanning calorimetry (DSC) and atomic force microscopy (AFM).
A bio-absorbable carrier component in combination with a vitamin E compound was made by mixing 1.5 grams of vitamin E and 3.5 grams of fish oil to form a base coating (30% vitamin E). A sample was then prepared by first dissolving 28 mg of rapamycin in 529 mg of NMP (N-methyl-2-pyrrolidone).

Compound: C=C1[C@@H](C)[C@H]2[C@H](Cc3ccccc3)NC(=O)[C@]23[C@H](OC(C)=O)/C=C/[C@@](C)(O)C(=O)[C@@H](C)C/C=C/[C@H]3[C@@H]1O [cytochalasin D]
less area stenosis compared to the control group (Porcine Coronary Model): 38%
less intimal hyperplasia compared to the control group (Porcine Coronary Model): 39%

maximum solubility ([1]; 70% vitamin E and 30% fish oil fatty acid formulation): greater than 28%
maximum solubility ([1]; 70% vitamin E and 30% fish oil formulation): 11.5%
dissolution state of drug in coating after drying ([1]; 70% vitamin E and 30% fish oil, 9% by weight loading using N-methyl-2-pyrrolidone): totally dissolved
dissolution state of drug in coating after drying ([1]; 70% vitamin E and 30% fish oil, 9% by weight loading using ethanol): forms crystals
maximum level of drug loading attainable before crystals began to form after drying ([1]; 70% vitamin E/30% fish oil base coat, drug loaded from NMP): 11.5%
maximum level of drug loading attainable before crystals began to form after drying ([1]; 70% vitamin E/30% fish oil fatty acids (FOFA) base coat, drug loaded from NMP): 28%
Compound: COc1ccc2[nH]cc(CCNC(C)=O)c2c1 [melatonin]

maximum level of drug loading attainable before crystals began to form after drying ([1]; 70% vitamin E/30% fish oil base coat, drug loaded from ethanol): 4.9%
dissolution state of drug in coating after drying ([1]; 70% vitamin E/30% fish oil, 4.9% by weight loading using N-methyl-2-pyrrolidone): not totally dissolved
dissolution state of drug in coating after drying ([1]; 70% vitamin E/30% fish oil, 5% by weight loading using ethanol): completely dissolved
Compound: CC(=O)O[C@H]1C(=O)[C@@]2(C)[C@H]([C@H](OC(=O)c3ccccc3)[C@]3(O)C[C@H](OC(=O)[C@H](O)[C@@H](NC(=O)c4ccccc4)c4ccccc4)C(C)=C1C3(C)C)[C@]1(OC(C)=O)CO[C@@H]1C[C@@H]2O [paclitaxel]
